Experiments:
[1] = Inhibition of TNF-alpha production in LPS stimulated human PBMC at 360 uM; type: functional
[2] = Inhibition of TNF-alpha production in LPS stimulated human PBMC; type: functional

SMILES: O=C1CCC(F)(N2C(=O)c3ccccc3C2=O)C(=O)N1 (stereo not drawn)
- inhibition at 360 µM [1]: 80%

SMILES: Nc1cccc2c1C(=O)N(C1(F)CCC(=O)NC1=O)C2=O (stereo not drawn)
- IC50 [2]: 230 nM

SMILES: Nc1cccc2c1C(=O)N(C1CCC(=O)NC1=O)C2=O (stereo not drawn) [POMALIDOMIDE]
- IC50 [2]: 230 nM
